Test results taken from patent publication US5639474A (Hanmi Pharm. Ind., Ltd., priority 1993, dated 1997).

Conditions: for Change in contents (per capsule): Initial content: cosurfactant content in soft capsule
Source text: The membrane permeation property of dimethylisosorbide over the storage period at the room temperature was examined for the soft capsules prepared using dimethylisosorbide (ARLASOLVE® DMI) as a cosurfactant according to the present invention and then compared with the membrane permeation properties of ethanol, propylene glycol, Transcutol (diethylene glycol monoethyl ether) and Glycofurol (tetrahydrofurfuryl alcohol polyethylene glycol ether). The content of the cosurfactant in each soft capsule preparation was analyzed by gas chromatography. The components and their constitutional ratios in the compositions used in this experiment are given in the following Table 1 and the experiment results are given in the following Table 2.
Note: Conditions of gas chromatography for each cosurfactant
Column: Ultra 2 (Cross-linked 2% phenylmethyl silicone gun phase, 25 m×0.32 mm, thickness 0.52 μm)
Column temperature: 230° C. (Isothermal)
Detector: FID (Temperature: 270° C.)
Injection temperature: 275° C.
Carrier gas: He (Partition ratio 80:1)
Internal standard: Octyl alcohol
Column: HP-20M (Carbowax 20M) (25 m×0.32 mm, film thickness 0.3 μm)
Column temperature: 30° C. (Isothermal)
Detector: FID (Temperature: 200° C.)
Injection temperature: 150° C.
Internal standard: Diethyl ether
Column temperature: 180° C. (Isothermal)
Detector: FID (Temperature: 240° C.)
Injection temperature: 240° C.
Internal standard: Pentadecanoic acid methyl ester
Column: Ultra 2 (Cross-linked 5% phenylmethyl silicone gun phase, 25 m×0.32 mm, thickness 0.52 μm)
Injection temperature: 270° C.
Detector: FID (Temperature: 270° C.) p1 Injection temperature: 270° C.
Internal standard: Dimethylisosorbide

Row | Change in contents (per capsule): Initial content | Change in contents (per capsule): Storage period 2 days (room temperature) | Change in contents (per capsule): Storage period 5 days (room temperature, 5 days) | Compound | Change in contents (per capsule): Storage period 14 days (room temperature)
1 | 19.8 | 7.3 |  | CCOCCOCCO [Transcutol, diethylene glycol monoethyl ether] | 2.7
2 | 19.8 | 3.6 | 0.9 | CC(O)CO (stereo not drawn) [Propylene glycol, propylene glycol] | 

Row | Compound | Change in contents (per capsule): Initial content | Change in contents (per capsule): Storage period 2 days (room temperature) | Change in contents (per capsule): Storage period 5 days (room temperature, 5 days) | Change in contents (per capsule): Storage period 14 days (room temperature)
3 | tetrahydrofurfuryl alcohol polyethylene glycol ether [Glycofurol] | 19.8 | 8.2 |  | 3.2
